Earlier results as cited in patent US20240265995A1, “System of Predicting Sensitivity of Klebsiella against Cefoxitin and Method” (priority 2023, published 2024).

System: carbapenem resistant Klebsiella pneumoniae
Conditions: carbapenem resistant Klebsiella pneumoniae isolated from 2014 to 2017 (252/403)

## C[C@@H](O)[C@H]1C(=O)N2C(C(=O)O)=C(S[C@@H]3CN[C@H](C(=O)N(C)C)C3)[C@H](C)[C@H]12 [meropenem]
  resistance rate against meropenem: 62.5%
